Patent US7030143B2, “Heterocyclic compounds” (Nippon Shinyaku Co., Ltd., priority 2000, dated 2006)

System: KK-A^y mice
Test: Effects on carbohydrate and lipid metabolism in KK-A^y mouse
Assay type: in vivo
Conditions: oral, 4 days; for Percent change of each parameter compared to control group (%): AI: Atherogenic Index = (TC − HDL-C)/HDL-C; for Percent change of each parameter compared to control group (%): BG: plasma glucose level; for Percent change of each parameter compared to control group (%): Ins: plasma insulin level; for Percent change of each parameter compared to control group (%): TG: plasma triglyceride level; for Percent change of each parameter compared to control group (%): HDL-C: serum HDL-C level; for Percent change of each parameter compared to control group (%): (V)LDL-C: sum of VLDL-C and LDL-C level in serum
Experimental: The experiment was conducted using the compounds described in the Examples as test compounds and Troglitazone (5-[4-(6-hydroxy-2,5,7,8-tetramethylchroman-2-ylmethoxy)benzyl]-2,4-thiazolidinedione) as a control compound.
Each test compound was orally administered to KK-A^y mice (10 week old, male), NIDDM model animal, for 4 days at a given dosage. On the next day of the last administration, blood was collected from tail end blood vessels under non-fasting conditions to prepare heparinized plasma. Thereafter, blood was collected from an abdominal large vein under pentobarbital anesthesia to prepare serum. The glucose level (BG), triglyceride level (TG) and insulin level (Ins) in plasma were measured using a glucose CII-test Wako (Wako Pure Chemical Industries, Ltd), CLINTECH TG-S (IATORON LABORATORIES, INC.) or triglyceride E-test WAKO (Wako Pure Chemical Industries, Ltd), and a rat insulin measurement kit (Morinaga Biochemistry Research Institute) or REBIS-insulin-mouse-T (Mouse Insulin ELISA (TMB) KIT, Shibayagi Co., Ltd), respectively. Also, the sum of VLDL-C level and LDL-C level in serum (hereinafter, referred to as “(V)LDL-C”), total cholesterol level (TC) and HDL-C level were measured using a high performance liquid chromatography system for the measurement of lipoprotein cholesterol (TOSOH CORPORATION). (V)LDL-C level was measured because VLDL-C and LDL-C cannot be measured separately. Atherogenic Index (AI) was calculated according to the following formula: AI=[(TC level)−(HDL-C level)]/(HDL-C level).

| SMILES | Percent change of each parameter compared to control group (%): AI (dose 1 mg/kg) | Percent change of each parameter compared to control group (%): BG (dose 1 mg/kg) | Percent change of each parameter compared to control group (%): Ins (dose 1 mg/kg) | Percent change of each parameter compared to control group (%): TG (dose 1 mg/kg) | Percent change of each parameter compared to control group (%): HDL-C (dose 1 mg/kg) | Percent change of each parameter compared to control group (%): (V)LDL-C (dose 1 mg/kg) | Percent change of each parameter compared to control group (%): AI (dose 3 mg/kg) | Percent change of each parameter compared to control group (%): BG (dose 3 mg/kg) | Percent change of each parameter compared to control group (%): Ins (dose 3 mg/kg) | Percent change of each parameter compared to control group (%): TG (dose 3 mg/kg) | Percent change of each parameter compared to control group (%): HDL-C (dose 3 mg/kg) | Percent change of each parameter compared to control group (%): (V)LDL-C (dose 3 mg/kg) | other results |
| --- | --- | --- | --- | --- | --- | --- | --- | --- | --- | --- | --- | --- | --- |
| Cc1oc(-c2ccccc2)nc1CCCCC1COC(C)(C(=O)O)OC1 (stereo not drawn) [Example 9, 2-Methyl-c-5-[4-(5-methyl-2-phenyloxazol-4-yl)butyl]-1,3-dioxane-r-2-carboxylic acid] | −49% | −12% | −36% | −46% | 36% | −29% |  |  |  |  |  |  |  |
| Cc1ccc(-c2nc(CCCCC3COC(C)(C(=O)O)OC3)c(C)o2)cc1 (stereo not drawn) [Example 11, 2-Methyl-c-5-{4-[5-methyl-2-(p-tolyl)oxazol-4-yl]butyl}-1,3-dioxane-r-2-carboxylic acid] |  |  |  |  |  |  | −91% | −36% | −16% | −83% | 11% | −89% |  |
| CC1(C(=O)O)OCC(CCCCc2coc(-c3ccccc3)n2)CO1 (stereo not drawn) [Example 14, 2-Methyl-c-5-[4-(2-phenyloxazol-4-yl)butyl]-1,3-dioxane-r-2-carboxylic acid] | −45% | −22% | −67% | −29% | 19% | −38% |  |  |  |  |  |  |  |
| Cc1oc(-c2ccc(C(C)(C)C)cc2)nc1CCCCC1COC(C)(C(=O)O)OC1 (stereo not drawn) [Example 18, c-5-{4-[2-(4-tert-Butylphenyl)-5-methyloxazol-4-yl]butyl}-2-methyl-1,3-dioxane-r-2-carboxylic acid] |  |  |  |  |  |  | −65% | −12% | −1% | −43% | 76% | −20% |  |
| Cc1oc(-c2ccc(C(F)(F)F)cc2)nc1CCCCC1COC(C)(C(=O)O)OC1 (stereo not drawn) [Example 20, 2-Methyl-c-5-{4-[5-methyl-2-(4-trifluoromethylphenyl)-oxazol-4-yl]butyl}-1,3-dioxane-r-2-carboxylic acid] | −44% | −15% | −44% | −31% | 30% | −33% |  |  |  |  |  |  |  |
| CCC1(C(=O)O)OCC(CCCCc2nc(-c3ccccc3)oc2C)CO1 (stereo not drawn) [Example 21, 2-Ethyl-c-5-[4-(5-methyl-2-phenyloxazol-4-yl)butyl]-1,3-dioxane-r-2-carboxylic acid] |  |  |  |  |  |  | −38% | −18% | −26% | −52% | 5% | −26% |  |
| Cc1ccc(-c2nc(CCCCCCOC(C)(C)C(=O)O)c(C)o2)cc1 [Example 37, 2-Methyl-2-{6-[5-methyl-2-(p-tolyl)oxazol-4-yl]hexyloxy}propionic acid] |  |  |  |  |  |  | −70% | −5% | −27% | −51% | 33% | −54% |  |
| Cc1oc(-c2ccccc2)nc1CC#CCCCOC(C)(C)C(=O)O [Example 38, 2-Methyl-2-[6-(5-methyl-2-phenyloxazol-4-yl)-4-hexynyloxy]propionic acid] | −65% | −21% | −39% | −50% | 38% | −38% |  |  |  |  |  |  |  |
| Cc1oc(-c2ccc(Cl)cc2)nc1CCCCCCOC(C)(C)C(=O)O [Example 39, 2-{6-[2-(4-Chlorophenyl)-5-methyloxazol-4-yl]hexyloxy}-2-methylpropionic acid] | −73% | −14% | −20% | −56% | 36% | −53% |  |  |  |  |  |  |  |
| Cc1oc(-c2ccccc2)nc1/C=C/CCC1COC(C)(C(=O)O)OC1 (stereo not drawn) [Example 53, 2-Methyl-c-5-[4-(5-methyl-2-phenyloxazol-4-yl)-(E)-3-butenyl]-1,3-dioxane-r-2-carboxylic acid] |  |  |  |  |  |  | −62% | −46% | −37% | −51% | 3% | −49% |  |
| Cc1oc(-c2ccccc2)nc1C/C=C/CCCOC(C)(C)C(=O)O [Example 54, Potassium 2-methyl-2-[6-(5-methyl-2-phenyloxazol-4-yl)-(E)-4-hexenyloxy]propionate] | −83% | −24% | −14% | −72% | 24% | −77% |  |  |  |  |  |  |  |
| Cc1oc(-c2ccccc2)nc1CCCCCCOC(C)(C)CO [Example 55, 2-Methyl-2-[6-(5-methyl-2-phenyloxazol-4-yl)hexyloxy]-propanol] |  |  |  |  |  |  |  |  |  |  |  |  | Percent change of each parameter compared to control group (%): AI (dose 10 mg/kg): −72%; Percent change of each parameter compared to control group (%): BG (dose 10 mg/kg): −22%; Percent change of each parameter compared to control group (%): Ins (dose 10 mg/kg): 2%; Percent change of each parameter compared to control group (%): TG (dose 10 mg/kg): −45%; Percent change of each parameter compared to control group (%): HDL-C (dose 10 mg/kg): 62%; Percent change of each parameter compared to control group (%): (V)LDL-C (dose 10 mg/kg): −44% |
| Cc1ccc(-c2nc(CCCCC3COC(C)(C(=O)O)OC3)c(C)o2)cc1F (stereo not drawn) [Example 64, 2-Methyl-c-5-{4-[5-methyl-2-(3-fluoro-4-methylphenyl)-oxazol-4-yl]butyl}-1,3-dioxane-r-2-carboxylic acid] | −72% | −12% | −20% | −53% | 21% | −63% |  |  |  |  |  |  |  |
| Cc1ccc(-c2nc(CCCCC3COC(C)(C(=O)O)OC3)c(C)s2)cc1 (stereo not drawn) [Example 70, 2-Methyl-c-5-{4-[5-methyl-2-(p-tolyl)thiazol-4-yl]-butyl}-1,3-dioxane-r-2-carboxylic acid] |  |  |  |  |  |  | −53% | −15% | 5% | −37% | 41% | −33% |  |
| Cc1cccc(-c2nc(CCCCC3COC(C)(C(=O)O)OC3)c(C)o2)c1 (stereo not drawn) [Example 71, 2-Methyl-c-5-{4-[5-methyl-2-(m-tolyl)oxazol-4-yl]butyl}-1,3-dioxane-r-2-carboxylic acid] |  |  |  |  |  |  | −90% | −51% | −61% | −89% | 1% | −90% |  |
